Data taken from DBAASP.
In brackets after ≈: the same amount, converted by molar mass. Each block holds one compound with its values, some of them ahead of it.

Tests used:
Test in all cases: ≥ marks a high value that may be exact or a test limit, other limits are often not marked, values filed in µg/mL are converted to µM
Bacillus cereus = test system: Bacillus cereus
Escherichia coli = test system: Escherichia coli
[1] = test system: Escherichia coli ATCC 25922
Micrococcus luteus = test system: Micrococcus luteus
[2] = test system: Pseudomonas aeruginosa ATCC 15692
Saccharomyces cerevisiae = test system: Saccharomyces cerevisiae
[3] = test system: Staphylococcus aureus ATCC 25923
[4] = test system: Candida albicans NCPF 1467
[5] = test system: Escherichia coli NCTC 10418
[6] = test system: Staphylococcus aureus NCTC 10788
Staphylococcus aureus = test system: Staphylococcus aureus
[7] = test system: Enterococcus faecalis NCTC 12697
[8] = test system: Pseudomonas aeruginosa ATCC 27853
[9] = test system: Staphylococcus aureus NCTC 12493
[10] = test system: Acinetobacter baumannii NM35
[11] = test system: Acinetobacter baumannii NM8
[12] = test system: Candida albicans ATCC 90028
[13] = test system: Escherichia coli ATCC 25726
[14] = test system: Streptococcus gordonii ATCC 10558
[15] = test system: Streptococcus mutans GS-5
[16] = test system: Streptococcus mutans UA159
[17] = test system: Streptococcus sanguinis ATCC 49295
Bacillus subtilis = test system: Bacillus subtilis
Candida albicans = test system: Candida albicans
Escherichia coli JM109 = test system: Escherichia coli JM109
Klebsiella pneumoniae = test system: Klebsiella pneumoniae

SMILES: CC[C@H](C)[C@H](NC(=O)[C@H](CC(C)C)NC(=O)[C@H](CCCN=C(N)N)NC(=O)[C@H](CCC(=O)O)NC(=O)[C@H](CC(C)C)NC(=O)[C@@H](NC(=O)[C@@H]1CCCN1C(=O)[C@H](CC(C)C)NC(=O)[C@H](C)NC(=O)[C@H](Cc1ccccc1)NC(=O)[C@H](C)NC(=O)[C@H](C)NC(=O)[C@@H](NC(=O)[C@H](CCCCN)NC(=O)CNC(=O)[C@@H](NC(=O)CNC(=O)[C@@H](NC(=O)[C@H](C)NC(=O)[C@H](C)N)[C@@H](C)O)[C@@H](C)O)[C@@H](C)O)C(C)C)C(=O)O [AATGTGKTAAFALPVLERLI]
MIC (Bacillus cereus): ≥ 128 µM | MIC (Escherichia coli): > 128 µM

SMILES: CC[C@H](C)[C@H](NC(=O)[C@@H](N)Cc1ccccc1)C(=O)NCC(=O)N[C@@H](C)C(=O)N[C@@H](CC(C)C)C(=O)N[C@@H](CC(C)C)C(=O)N[C@@H](CCCN=C(N)N)C(=O)N1CCC[C@H]1C(=O)N[C@@H](C)C(=O)N[C@@H](CC(C)C)C(=O)N[C@@H](CCCCN)C(=O)N[C@@H](CC(C)C)C(=O)N[C@@H](CC(C)C)C(=O)N[C@@H](C)C(=O)NCC(=O)N[C@@H](CCCCN)C(N)=O [FIGALLRPALKLLAGK]
MIC [1]: 32 µM (≈ 53.8 µg/mL) | MIC (Micrococcus luteus): 4 µM (≈ 6.72 µg/mL) | MIC [2]: ≥ 256 µM | MIC (Saccharomyces cerevisiae): ≥ 128 µM | MIC [3]: 16 µM (≈ 26.9 µg/mL)

SMILES: CC[C@H](C)[C@H](NC(=O)[C@H](Cc1ccc(O)cc1)NC(=O)[C@H](CC(C)C)NC(=O)[C@@H](N)Cc1ccccc1)C(=O)N[C@H](C(=O)N[C@@H](C)C(=O)N[C@@H](CCCCN)C(=O)N[C@@H](CC(C)C)C(=O)N[C@@H](CC(C)C)C(=O)N[C@@H](CO)C(=O)NCC(=O)N[C@@H](CC(C)C)C(=O)N[C@@H](CC(C)C)C(N)=O)C(C)C [FLYIVAKLLSGLL]
MIC [4]: 2 µM (≈ 2.9 µg/mL) | MIC [7]: 2 µM (≈ 2.9 µg/mL) | MIC [5]: ≥ 512 µM | MIC [8]: > 512 µM | MIC [6]: 1 µM (≈ 1.45 µg/mL) | MIC [9]: 2 µM (≈ 2.9 µg/mL)

SMILES: CC[C@H](C)[C@H](NC(=O)[C@H](C)NC(=O)CNC(=O)[C@@H](NC(=O)[C@@H](N)Cc1ccccc1)C(C)C)C(=O)N[C@@H](C)C(=O)N[C@@H](C)C(=O)N[C@@H](C)C(=O)N[C@@H](CC(C)C)C(=O)N1CCC[C@H]1C(=O)N[C@@H](Cc1cnc[nH]1)C(=O)N[C@H](C(=O)N[C@H](C(=O)N[C@@H](CO)C(=O)N[C@@H](C)C(=O)N[C@H](C(=O)N[C@@H](CCCCN)C(=O)N[C@@H](CC(N)=O)C(=O)N[C@@H](C)C(=O)N[C@@H](CC(C)C)C(=O)O)[C@@H](C)CC)[C@@H](C)CC)C(C)C [FVGAIAAALPHVISAIKNAL]
MIC [4]: ≥ 120 µM | MIC [6]: 16 µM (≈ 31.6 µg/mL)

SMILES: CC(C)C[C@H](NC(=O)[C@H](CCCN=C(N)N)NC(=O)[C@H](Cc1ccccc1)NC(=O)[C@H](Cc1ccccc1)NC(=O)[C@@H](NC(=O)[C@H](CO)NC(=O)[C@@H](N)CC(C)C)[C@@H](C)O)C(=O)N[C@@H](Cc1ccccc1)C(=O)N[C@@H](CC(N)=O)C(=O)N[C@@H](CCCN=C(N)N)C(=O)N[C@@H](CO)C(=O)N[C@@H](Cc1ccccc1)C(=O)N[C@H](C(=O)N[C@@H](CCC(N)=O)C(=O)O)[C@@H](C)O [LSTFFRLFNRSFTQ]
MIC [14]: ≥ 145 µM | MIC [15]: ≥ 145 µM | MIC [16]: ≥ 145 µM | MIC [17]: ≥ 145 µM

SMILES: CC[C@H](C)[C@H](NC(=O)[C@H](CCCCN)NC(=O)[C@H](CCCCN)NC(=O)[C@H](Cc1ccccc1)NC(=O)[C@@H](NC(=O)[C@H](CCCCN)NC(=O)[C@H](Cc1c[nH]c2ccccc12)NC(=O)[C@@H](N)CCCN=C(N)N)[C@@H](C)CC)C(=O)N[C@@H](CCC(=O)O)C(=O)N[C@@H](CCCCN)C(=O)N[C@@H](CCSC)C(=O)NCC(=O)NCC(=O)N[C@@H](CO)C(=O)N[C@@H](Cc1ccc(O)cc1)C(=O)N[C@@H](CS)C(=O)N[C@@H](CC(N)=O)C(=O)N[C@@H](CCCN=C(N)N)C(=O)N[C@@H](CCCN=C(N)N)C(=O)N[C@H](C(=O)NCC(=O)N[C@@H](CCCCN)C(=O)N[C@@H](CS)C(=O)N[C@@H](CCC(N)=O)C(=O)N[C@@H](CCCN=C(N)N)C(=O)N[C@@H](CCSC)C(=O)O)[C@@H](C)O [RWKIFKKIEKMGGSYCNRRTGKCQRM]
MIC (Bacillus subtilis): 10 µM (≈ 32.1 µg/mL) | MIC (Candida albicans): 50 µM (≈ 160 µg/mL) | MIC (Escherichia coli JM109): 28.3 µM (≈ 90.7 µg/mL) | MIC (Klebsiella pneumoniae): 80 µM (≈ 256 µg/mL) | MIC (Saccharomyces cerevisiae): 28.3 µM (≈ 90.7 µg/mL)

Results, then the compound that gave them:

MIC [4]: 4 µM (≈ 8.24 µg/mL) | MIC [5]: 8 µM (≈ 16.5 µg/mL) | MIC [6]: 4 µM (≈ 8.24 µg/mL)
SMILES: CC[C@H](C)[C@H](NC(=O)[C@H](C)NC(=O)[C@H](CCCCN)NC(=O)[C@@H]1CCCN1C(=O)[C@@H](NC(=O)[C@H](CC(C)C)NC(=O)[C@H](CCCCN)NC(=O)[C@H](Cc1ccccc1)NC(=O)[C@H](CC(C)C)NC(=O)[C@@H](N)Cc1ccccc1)[C@@H](C)CC)C(=O)N[C@@H](CCCCN)C(=O)NCC(=O)N[C@@H](CC(C)C)C(=O)N[C@@H](CC(C)C)C(=O)N[C@@H](CCCCN)C(=O)N[C@@H](C)C(=O)N[C@@H](Cc1ccccc1)C(=O)N[C@H](C=O)CCCCN [FLFKLIPKAIKGLLKAFK]

MIC (Bacillus cereus): ≥ 57.5 µM | MIC (Escherichia coli): 14.4 µM (≈ 32 µg/mL) | MIC (Staphylococcus aureus): > 57.5 µM
SMILES: CC(C)C[C@H](NC(=O)[C@@H](N)Cc1ccccc1)C(=O)NCC(=O)N[C@@H](CCCCN)C(=O)N[C@H](C(=O)N[C@@H](Cc1ccccc1)C(=O)N[C@@H](CCCCN)C(=O)N[C@@H](CCCCN)C(=O)N[C@H](C(=O)N[C@@H](CO)C(=O)N[C@@H](CCCCN)C(=O)N[C@H](C(=O)N[C@@H](Cc1ccccc1)C(=O)N1CCC[C@H]1C(=O)N[C@@H](C)C(=O)N[C@H](C(=O)N[C@@H](Cc1ccccc1)C(=O)NCC(=O)N[C@@H](CCCCN)C(=O)N[C@H](C(=O)O)C(C)C)C(C)C)C(C)C)C(C)C)C(C)C [FLGKVFKKVSKVFPAVFGKV]

MIC [4]: 8.11 µM (≈ 16 µg/mL) | MIC [5]: ≥ 64.9 µM | MIC [6]: 4.06 µM (≈ 8 µg/mL)
SMILES: CC[C@H](C)[C@H](NC(=O)CNC(=O)CNC(=O)[C@H](C)NC(=O)[C@@H](NC(=O)[C@H](CCCCN)NC(=O)[C@@H]1CCCN1C(=O)[C@@H](NC(=O)[C@H](CCSC)NC(=O)[C@H](CO)NC(=O)[C@H](CC(C)C)NC(=O)[C@@H](N)Cc1ccccc1)[C@@H](C)CC)[C@@H](C)CC)C(=O)N[C@@H](C)C(=O)N[C@@H](CO)C(=O)N[C@@H](CC(C)C)C(=O)N[C@H](C(=O)N[C@@H](CCCCN)C(=O)N[C@@H](CC(N)=O)C(=O)N[C@@H](CC(C)C)C(N)=O)C(C)C [FLSMIPKIAGGIASLVKNL]

MIC [10]: 2.5 µM (≈ 5.8 µg/mL) | MIC [11]: 5 µM (≈ 11.6 µg/mL) | MIC [12]: 10 µM (≈ 23.2 µg/mL) | MIC [13]: 10 µM (≈ 23.2 µg/mL) | MIC [3]: 250 µM (≈ 580 µg/mL)
SMILES: CC[C@H](C)[C@H](NC(=O)CNC(=O)[C@H](CCCCN)NC(=O)[C@@H](NC(=O)[C@H](CC(C)C)NC(=O)[C@H](CO)NC(=O)CNC(=O)[C@H](CC(C)C)NC(=O)CNC(=O)[C@H](CCCCN)NC(=O)[C@H](CCCCN)NC(=O)[C@H](Cc1ccccc1)NC(=O)[C@@H](NC(=O)[C@H](CCCCN)NC(=O)[C@H](CCCCN)NC(=O)[C@H](CC(C)C)NC(=O)CN)[C@@H](C)CC)C(C)C)C(=O)N[C@@H](C)C(=O)N[C@@H](C)C(=O)N[C@@H](Cc1cnc[nH]1)C(=O)N[C@H](C(=O)N[C@@H](C)C(=O)N[C@@H](CO)C(N)=O)C(C)C [GLKKIFKKGLGSLVKGIAAHVAS]

MIC (Bacillus cereus): ≥ 122 µM | MIC (Escherichia coli): > 122 µM
SMILES: CC[C@H](C)[C@H](NC(=O)[C@H](Cc1ccccc1)NC(=O)[C@H](CCCN=C(N)N)NC(=O)[C@H](CO)NC(=O)[C@@H](NC(=O)[C@H](C)NC(=O)[C@H](C)NC(=O)[C@H](CCCCN)NC(=O)[C@@H](NC(=O)[C@H](CS)NC(=O)[C@@H](NC(=O)[C@@H]1CCCN1C(=O)[C@H](CO)NC(=O)[C@H](Cc1ccc(O)cc1)NC(=O)[C@@H](N)CC(C)C)[C@@H](C)O)C(C)C)C(C)C)C(=O)NCC(=O)N[C@@H](CCCCN)C(=O)N[C@H](C(=O)N[C@@H](CO)C(=O)N[C@@H](C)C(=O)O)C(C)C [LYSPTCVKAAVSRFIGKVSA]
